Converted amounts (≈) assume the structure as drawn. Like-named read-outs stand apart in the source and are kept apart here.
Columns and labels:
Staphylococcus aureus [1] = test: MIC by agar macrodilution (NCCLS), 373 Gram positive isolates, Athens 1998; type: cell-based; details: Methicillin-susceptible Staphylococcus aureus (n = 85)
[2] = system: Mycobacterium tuberculosis (MTB); test: MIC by proportions method (NCCLS M24-T, 1995), 82 MTB strains; type: cell-based; details: Mycobacterium tuberculosis; 82 MTB strains
Klebsiella pneumoniae [3] = test: MIC by agar dilution (NCCLS), 322 nosocomial Gram negative isolates, Athens 1998; type: cell-based; details: n = 56 isolates
Campylobacter jejuni = test: MIC by agar dilution (NCCLS M7-A4), 288 enteropathogenic isolates, gemifloxacin and 15 other antimicrobials; details: for MIC: Campylobacter jejuni
Escherichia coli = test: MIC by agar dilution (NCCLS), 322 nosocomial Gram negative isolates, Athens 1998; type: cell-based; details: Escherichia coli; n = 57 isolates
Shigella spp. = test: MIC by agar dilution (NCCLS M7-A4), 288 enteropathogenic isolates, gemifloxacin and 15 other antimicrobials; type: cell-based; details: Shigella spp. N= 21
Method in brief: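 Agar dilution with ~10^4 cfu/spot inoculum; plates incubated aerobically at 35 °C for 24 h, except C. jejuni, held microaerophilically for 48 h. MIC taken as lowest antibiotic concentration with no visible growth.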

Hafnia alvei [4] = test: as above; type: cell-based; details: Hafnia alvei N= 32
Pseudomonas aeruginosa = test: MIC by agar dilution (NCCLS), 322 nosocomial Gram negative isolates, Athens 1998; type: cell-based; details: n = 57 isolates
Enterococcus faecium = test: MIC by agar macrodilution (NCCLS), 373 Gram positive isolates, Athens 1998; type: cell-based
Salmonella spp. [5] = test: MIC by agar dilution (NCCLS M7-A4), 288 enteropathogenic isolates, gemifloxacin and 15 other antimicrobials; type: cell-based
Hafnia alvei [6] = test: MIC by agar dilution (NCCLS M7-A4), 288 enteropathogenic isolates, eight quinolones; type: cell-based; details: Hafnia alvei (n = 32)
Proteus vulgaris = test: MIC by NCCLS broth microdilution, 1100 Japanese clinical isolates 1997-1998; type: cell-based
Salmonella spp. [7] = test: as above; type: cell-based; details: Salmonella spp. (n=29)
Staphylococcus aureus [8] = test: as above; type: cell-based; details: for MIC: Staphylococcus aureus quinolone resistant
Klebsiella pneumoniae [9] = test: as above; type: cell-based; details: Klebsiella pneumoniae (n=35)
P. aeruginosa = test: MIC by two-fold serial agar dilution, quinolone-resistant strains; type: cell-based; details: Pseudomonas aeruginosa
Enterobacter cloacae = test: MIC by NCCLS broth microdilution, 1100 Japanese clinical isolates 1997-1998; type: cell-based; details: Enterobacter cloacae (n=40)
Proteus mirabilis = test: as above; type: cell-based; details: Proteus mirabilis (n=30)
[10] = 24 h, read-out: MIC (mg/L) Range
[11] = Staphylococcus aureus oxacillin susceptible (n=41)
[12] = Staphylococcus aureus, Staphylococcus aureus oxacillin resistant (n=57)

Cc1c(F)c(N2CCNC(C)C2)cc2c1c(=O)c(C(=O)O)cn2C1CC1 (stereo not shown) [Grepafloxacin, grepafloxacin]
MIC Range (Staphylococcus aureus [1]): 0.06 to 32 µg/mL
MIC50 (Staphylococcus aureus [1]; read-out: MIC50): 0.125 µg/mL (≈ 0.348 µM)
MIC90 (Staphylococcus aureus [1]; read-out: MIC90): 0.25 µg/mL (≈ 0.696 µM)
MIC90 [2]: 2 µg/mL (≈ 5.56 µM)
MIC50 (Klebsiella pneumoniae [3]; Klebsiella pneumoniae): 0.125 µg/mL (≈ 0.348 µM)
MIC90 (Klebsiella pneumoniae [3]; Klebsiella pneumoniae): 1 µg/mL (≈ 2.78 µM)
MIC Range (Klebsiella pneumoniae [3]): ≤0.03 to 64 µg/mL
MIC (mg/L) Range (Campylobacter jejuni; Campylobacter jejuni N= 91): 0.03 to 128 mg/L
MIC (Campylobacter jejuni; read-out: MIC (mg/L) 50%): 32 mg/L (≈ 89 µM)
MIC (Campylobacter jejuni; read-out: MIC (mg/L) 90%): 64 mg/L (≈ 178 µM)
MIC50 (Escherichia coli): 0.06 µg/mL (≈ 0.167 µM)
MIC90 (Escherichia coli): 0.25 µg/mL (≈ 0.696 µM)
MIC (Shigella spp.; [10]): 0.015 to 0.03 mg/L (≈ 0.0417 to 0.0835 µM)
MIC (Shigella spp.; read-out: MIC (mg/L) 50%): ≤ 0.015 mg/L
MIC (Shigella spp.; read-out: MIC (mg/L) 90%): 0.03 mg/L (≈ 0.0835 µM)
MIC (Hafnia alvei [4]; [10]): 0.015 to 0.06 mg/L (≈ 0.0417 to 0.167 µM)
MIC (Hafnia alvei [4]; read-out: MIC (mg/L) 50%): 0.03 mg/L (≈ 0.0835 µM)
MIC (Hafnia alvei [4]; read-out: MIC (mg/L) 90%): 0.06 mg/L (≈ 0.167 µM)
MIC50 (Pseudomonas aeruginosa): 1 µg/mL (≈ 2.78 µM)
MIC90 (Pseudomonas aeruginosa): > 64 µg/mL
MIC distribution (µg/ml) 0.03 (Enterococcus faecium): 0
MIC distribution (µg/ml) 0.06 (Enterococcus faecium): 0
MIC distribution (µg/ml) 0.125 (Enterococcus faecium): 0
MIC distribution (µg/ml) 0.25 (Enterococcus faecium): 2
MIC distribution (µg/ml) 0.5 (Enterococcus faecium): 4
MIC distribution (µg/ml) 1 (Enterococcus faecium): 3
MIC distribution (µg/ml) 2 (Enterococcus faecium): 0
MIC distribution (µg/ml) 4 (Enterococcus faecium): 0
MIC distribution (µg/ml) 8 (Enterococcus faecium): 1
MIC distribution (µg/ml) 16 (Enterococcus faecium): 1
MIC distribution (µg/ml) ≤0.015 (Enterococcus faecium): 0
MIC distribution (µg/ml) ≥32 (Enterococcus faecium): 3
MIC50 (Enterococcus faecium; Enterococcus faecium, n = 14 isolates, read-out: MIC50): 2 µg/mL (≈ 5.56 µM)
MIC90 (Enterococcus faecium; Enterococcus faecium, n = 14 isolates, read-out: MIC90): ≥ 32 µg/mL
MIC (Salmonella spp. [5]; S. hadar(2), isolates with MICs for ciprofloxacin ≥[…], read-out: MIC): 1 mg/L (≈ 2.78 µM)
MIC (Salmonella spp. [5]; S. newport(1), isolate with MIC for ciprofloxacin ≥[…], read-out: MIC): 1 mg/L (≈ 2.78 µM)
MIC (Salmonella spp. [5]; S. virchow(2), isolates with MICs for ciprofloxacin ≥[…], read-out: MIC): 0.25 mg/L (≈ 0.696 µM)
Rates of non-susceptible microorganisms (Salmonella spp. [5]; Salmonella spp.): 1%
MIC (mg/L) Range (Salmonella spp. [5]; Salmonella spp. N= 106): 0.03 to 2 mg/L
MIC (Salmonella spp. [5]; Salmonella, S. tshiongwe(1), isolate with MIC for ciprofloxacin ≥[…], read-out: MIC): 2 mg/L (≈ 5.56 µM)
MIC (Salmonella spp. [5]; Salmonella, read-out: MIC (mg/L) 50%, Salmonella spp. N= 106): 0.06 mg/L (≈ 0.167 µM)
MIC (Salmonella spp. [5]; Salmonella, read-out: MIC (mg/L) 90%, Salmonella spp. N= 106): 0.25 mg/L (≈ 0.696 µM)
MIC (Salmonella spp. [5]; Salmonella, the non-susceptible Salmonella spp. isolate(s) (1% of 106), read-out: MIC): 2 mg/L (≈ 5.56 µM)
% Susceptible (Hafnia alvei [6]): 100%
MIC50 (Hafnia alvei [6]): 0.03 µg/mL (≈ 0.0835 µM)
MIC90 (Hafnia alvei [6]): 0.06 µg/mL (≈ 0.167 µM)
MIC Range (Hafnia alvei [6]): ≤0.015 to 0.06 µg/mL

NC1CCN(c2nc3c(cc2F)c(=O)c(C(=O)O)cn3-c2ccc(F)cc2F)C1 (stereo not shown) [Tosufloxacin, tosufloxacin]
MIC50 (Proteus vulgaris; Proteus vulgaris): 0.125 µg/mL (≈ 0.309 µM)
MIC Range (Proteus vulgaris; Proteus vulgaris (n=25)): 0.063 to 1 µg/mL
MIC90 (Proteus vulgaris; Proteus vulgaris (n=25), read-out: MIC90): 0.5 µg/mL (≈ 1.24 µM)
MIC50 (Salmonella spp. [7]): 0.032 µg/mL (≈ 0.0791 µM)
MIC90 (Salmonella spp. [7]): 0.063 µg/mL (≈ 0.156 µM)
MIC Range (Salmonella spp. [7]): 0.016 to 0.063 µg/mL
MIC90 (Staphylococcus aureus [8]; [11]): 0.125 µg/mL (≈ 0.309 µM)
MIC Range (Staphylococcus aureus [8]; [11]): 0.016 to 1 µg/mL
MIC50 (Staphylococcus aureus [8]; [12]): 4 µg/mL (≈ 9.89 µM)
MIC90 (Staphylococcus aureus [8]; [12]): > 16 µg/mL
MIC50 (Staphylococcus aureus [8]; Staphylococcus aureus, Staphylococcus aureus oxacillin susceptible (n=41)): 0.063 µg/mL (≈ 0.156 µM)
MIC (Staphylococcus aureus [8]; Staphylococcus aureus, strain TMS1* (spontaneous mutant resistant to ciprofloxacin)): 0.25 µg/mL (≈ 0.618 µM)
MIC (Staphylococcus aureus [8]; Staphylococcus aureus, strain TMS3, read-out: MIC): > 16 µg/mL
MIC (Staphylococcus aureus [8]; Staphylococcus aureus, strain TMS4, read-out: MIC): 4 µg/mL (≈ 9.89 µM)
MIC (Staphylococcus aureus [8]; Staphylococcus aureus, strain TMS5, read-out: MIC): 4 µg/mL (≈ 9.89 µM)
MIC (Staphylococcus aureus [8]; Staphylococcus aureus, strain TMS6, read-out: MIC): 2 µg/mL (≈ 4.95 µM)
MIC50 (Klebsiella pneumoniae [9]): 0.032 µg/mL (≈ 0.0791 µM)
MIC Range (Klebsiella pneumoniae [9]): 0.016 to 2 µg/mL
MIC90 (Klebsiella pneumoniae [9]; read-out: MIC90): 0.063 µg/mL (≈ 0.156 µM)
MIC (P. aeruginosa): 1 µg/mL (≈ 2.47 µM)
MIC50 (Enterobacter cloacae): 0.032 µg/mL (≈ 0.0791 µM)
MIC90 (Enterobacter cloacae): 1 µg/mL (≈ 2.47 µM)
MIC Range (Enterobacter cloacae): ≤0.008 to 2 µg/mL
MIC Range (Proteus mirabilis): 0.063 to 16 µg/mL
MIC50 (Proteus mirabilis; read-out: MIC50): 0.25 µg/mL (≈ 0.618 µM)
MIC90 (Proteus mirabilis; read-out: MIC90): 0.5 µg/mL (≈ 1.24 µM)
